Patent US20080319087A1, “Use of Ambroxol for the Treatment of Rhinovirus Infections” (priority 2005, published 2008)
Where a name gives a salt, the structure may show the parent alone.

How the values were obtained:
[1] = tested on: human rhinovirus subtype 14 (HRV 14); experiment: plaque-reduction assay, HeLa cells infected with human rhinovirus subtype 14; type: cell-based
Procedure: For the purpose of the study HeLa cells were inocculated with human rhinovirus subtype 14 (HRV 14), isolated from nasopharyngeal secretions. Ambroxol hydrochloride (AX) was chosen as the compound for antiviral testing. The antiviral activity of the test substance was evaluated in the plaque-reduction assay. To test the effect of AX on rhinovirus replication HeLa cells were infected with a multiplicity of infection (MOI) of 0.0002, without (control for 100% infection) or in the presence of AX at concentrations between 0.3 and 10 μg/ml. Infected cell cultures were cultivated for three days. Inhibition of virus plaques was evaluated microscopically and compared with controls.

[2] = tested on: HeLa cells; type: cell-based; settings: human, 5 days
Procedure: As a first step an assay on possible toxic effects of AX was performed by incubating HeLa cells with increasing dilutions of the test substance for 5 days.
Cell morphology was checked using a microscope. In addition, an assay for mitochondrial enzyme activity (MTT-assay) was used to evaluate the vitality of cells. No changes in cell morphology and enzyme activity were found at concentrations of 10 μg AX/ml and below.

[3] = tested on: influenza A virus; settings: mice infected with influenza A virus; Yang et al., Eur. Resp. J. 19, 952-958 (2002); cited from earlier work

Row | SMILES | inhibition at 0.3 µg/mL ([1]; Human rhinovirus sp., 72 h, 0.3 μg/ml, HeLa cells, HRV 14, MOI 0.0002, three days, average of 6 individual tests, read-out: relative inhibition) [%] | inhibition at 0.6 µg/mL ([1]; Human rhinovirus sp., 72 h, 0.6 μg/ml, HeLa cells, HRV 14, MOI 0.0002, three days, average of 6 individual tests, read-out: relative inhibition) [%] | inhibition at 1.2 µg/mL ([1]; Human rhinovirus sp., 72 h, 1.2 μg/ml, HeLa cells, HRV 14, MOI 0.0002, three days, average of 6 individual tests, read-out: relative inhibition) [%] | inhibition at 2.5 µg/mL ([1]; Human rhinovirus sp., 72 h, 2.5 μg/ml, HeLa cells, HRV 14, MOI 0.0002, three days, average of 6 individual tests, read-out: relative inhibition) [%] | inhibition at 5 µg/mL ([1]; Human rhinovirus sp., 72 h, 5 μg/ml, HeLa cells, HRV 14, MOI 0.0002, three days, average of 6 individual tests, read-out: relative inhibition) [%] | inhibition at 10 µg/mL ([1]; Human rhinovirus sp., 72 h, 10 μg/ml, HeLa cells, HRV 14, MOI 0.0002, three days, average of 6 individual tests, read-out: relative inhibition) [%] | rhinovirus replication ([1]; conclusion from Table 6) | concentrations at which no changes in cell morphology were found [2] [μg AX/ml] | concentrations at which no changes in enzyme activity were found [2] [μg AX/ml] | survival rate [3]
1 | Nc1c(Br)cc(Br)cc1CN[C@H]1CC[C@H](O)CC1 [Ambroxol hydrochloride] | 9.71 | 14.4 | 34.3 | 36.8 | 63.7 | 70.7 | effectively blocks rhinovirus replication | ≤ 10 | ≤ 10 | –
2 | Nc1c(Br)cc(Br)cc1CNC1CCC(O)CC1 (stereo not drawn) [Ambroxol, trans-4-(2-amino-3,5-dibromobenzylamino)-cyclohexanole] | – | – | – | – | – | – | – | – | – | increase the survival rate
